This passage reports IC50 results from article PMC10545567, “A complex bearing TSPO PIGA ligand coordinated to the [Au(PEt3)]^+ pharmacophore is highly cytotoxic against ovarian cancer cells” (Biometals, 2023).

The assay concerns the target T1, Thioredoxin reductase (TrxR) (Rattus norvegicus, UniProt O89049).
T1 construct: gene Txnrd1
The experiment in a line: DTNB reduction assay with isolated rat liver TrxR, […] nm, […] min preincubation with NADPH.

T1 sequence (O89049 whole entry): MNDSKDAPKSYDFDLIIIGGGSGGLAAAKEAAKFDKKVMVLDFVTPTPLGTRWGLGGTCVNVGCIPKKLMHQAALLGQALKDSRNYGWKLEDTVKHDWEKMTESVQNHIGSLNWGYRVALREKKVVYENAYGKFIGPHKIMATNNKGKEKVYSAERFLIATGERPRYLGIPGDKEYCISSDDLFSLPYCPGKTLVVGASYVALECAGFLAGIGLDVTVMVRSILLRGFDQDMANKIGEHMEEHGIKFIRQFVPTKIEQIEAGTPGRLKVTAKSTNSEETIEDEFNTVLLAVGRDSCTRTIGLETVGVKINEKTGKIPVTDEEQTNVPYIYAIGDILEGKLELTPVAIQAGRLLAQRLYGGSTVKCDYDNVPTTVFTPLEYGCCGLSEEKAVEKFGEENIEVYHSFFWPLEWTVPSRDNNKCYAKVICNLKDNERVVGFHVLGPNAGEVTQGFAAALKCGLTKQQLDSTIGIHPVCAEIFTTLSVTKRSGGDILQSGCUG

Regarding `CCCCCCN(CCCCCC)C(=O)C(=O)c1c(-c2ccccc2)[n]([Au-][P+](CC)(CC)CC)c2ccccc12` [compound 1, [N,N-di-n-hexyl-2-(2-phenyl-1-indol-kN-3-yl)glyoxylamido]-AuPEt3], the IC50 was 0.0592 µM.

For the compound `CC[P+](CC)(CC)[Au-][Cl]` [compound 5, Et3PAuCl], the IC50 stood at 0.0511 µM.

In general, IC50 refers to the point on the concentration scale where inhibition reaches its midpoint. A higher IC50 goes with weaker potency in that assay.
